Assay results reported in US6046168A, “Peptide inhibits blood triglyceride level” (Hankyu-Kyoei Bussan Co., Ltd., priority 1993, dated 2000).
Residues, ends and D or L forms follow the SMILES beside them.

System: Healthy albino mice
Test: Serum TG elevation inhibiting action at the time of in vivo lipid loading (olive oil)
Conditions: for Ratio of Increase in Blood TG Levels (%): blood collected 3 hours after
Experimental: Serum TG elevation inhibiting action at the time of in vivo lipid loading was examined on the three peptides of the invention inhibiting elevations of TG levels in blood (i.e., the peptide having the amino acid sequence of SEQ ID NO: 1 and the peptides Val-Thr-Leu and Val-Tyr-Pro synthesized by the method described in Example 4). Healthy albino mice (5-10 weeks old; body weight: about 20-30 g) were used in this experiment. To each mouse, 250 mg of olive oil and an aqueous solution of the above peptide were administered orally. Three hours thereafter, blood was collected under anesthesia with Nembutal. After separation of the blood, the TG level in blood was determined.

CC(C)C[C@H](NC(=O)[C@@H](NC(=O)[C@@H](N)C(C)C)[C@@H](C)O)C(=O)O [Val--Thr--Leu, H-Val-Thr-Leu-OH] (H-Val-Thr-Leu-OH)
Ratio of Increase in Blood TG Levels (%) (dose 0.1 mg/mouse oral with 250 mg olive oil): 30% | Ratio of Increase in Blood TG Levels (%) (dose 0.2 mg/mouse oral with 250 mg olive oil): 33% | Ratio of Increase in Blood TG Levels (%) (dose 1.0 mg/mouse oral with 250 mg olive oil): 73% | Ratio of Increase in Blood TG Levels (%) (dose 2.5 mg/mouse oral with 250 mg olive oil): 76% | Ratio of Increase in Blood TG Levels (%) (dose 5.0 mg/mouse oral with 250 mg olive oil): 79% | ID50: Dose (mg/mouse) exhibiting 50% inhibition (oral, mice loaded with 250 mg olive oil, blood TG after 3 hours): 0.43 mg/mouse | Specific Activity (relative to the proteolysate (= 1), times): 65
